Laboratory results reported in paper PMC7522982, “PKIS deep dive yields a chemical starting point for dark kinases and a cell active BRSK2 inhibitor” (Scientific Reports, 2020).

How the values were obtained:
TNIK = TNIK (Homo sapiens, UniProt Q9UKE5); assay: DiscoverX scanMAX competition binding assay; set-up: purchased Eurofins DiscoverX (scanMAX) / Eurofins enzymatic assays
From the text: (§1) Based on its narrow profile when tested in the combined Nanosyn and TSA panels, GW296115 was included in the recently released Kinase Chemogenomic Set (KCGS)[15]. All of the data presented in the Introduction section was collected prior to the inclusion of GW296115 in KCGS and everything that follows has been subsequently generated. Since its inclusion in PKIS and more recently KCGS, we have carried out a broader round of screening at DiscoverX. This profiling data has not been previously released and is reported here for the first time. GW296115 was profiled against 403 wild type human kinases at 1 μM using the DiscoverX scanMAX screening platform, which employs an active site-directed competition binding assay to quantitatively measure interactions between test compounds and kinases, [16]. GW296115 inhibited 25 kinases > 90% at 1 μM, resulting in a selectivity index (S10) of 0.062 at 1 μM (Table S2, Fig. 1C)[17].
(§2) The scanMAX assays were performed at Eurofins DiscoverX Corporation as previously described.

PLK4 = PLK4 (Homo sapiens, UniProt O00444); assay: DiscoverX scanMAX competition binding assay; set-up: purchased Eurofins DiscoverX (scanMAX) / Eurofins enzymatic assays
Chain of PLK4 (O00444 whole entry): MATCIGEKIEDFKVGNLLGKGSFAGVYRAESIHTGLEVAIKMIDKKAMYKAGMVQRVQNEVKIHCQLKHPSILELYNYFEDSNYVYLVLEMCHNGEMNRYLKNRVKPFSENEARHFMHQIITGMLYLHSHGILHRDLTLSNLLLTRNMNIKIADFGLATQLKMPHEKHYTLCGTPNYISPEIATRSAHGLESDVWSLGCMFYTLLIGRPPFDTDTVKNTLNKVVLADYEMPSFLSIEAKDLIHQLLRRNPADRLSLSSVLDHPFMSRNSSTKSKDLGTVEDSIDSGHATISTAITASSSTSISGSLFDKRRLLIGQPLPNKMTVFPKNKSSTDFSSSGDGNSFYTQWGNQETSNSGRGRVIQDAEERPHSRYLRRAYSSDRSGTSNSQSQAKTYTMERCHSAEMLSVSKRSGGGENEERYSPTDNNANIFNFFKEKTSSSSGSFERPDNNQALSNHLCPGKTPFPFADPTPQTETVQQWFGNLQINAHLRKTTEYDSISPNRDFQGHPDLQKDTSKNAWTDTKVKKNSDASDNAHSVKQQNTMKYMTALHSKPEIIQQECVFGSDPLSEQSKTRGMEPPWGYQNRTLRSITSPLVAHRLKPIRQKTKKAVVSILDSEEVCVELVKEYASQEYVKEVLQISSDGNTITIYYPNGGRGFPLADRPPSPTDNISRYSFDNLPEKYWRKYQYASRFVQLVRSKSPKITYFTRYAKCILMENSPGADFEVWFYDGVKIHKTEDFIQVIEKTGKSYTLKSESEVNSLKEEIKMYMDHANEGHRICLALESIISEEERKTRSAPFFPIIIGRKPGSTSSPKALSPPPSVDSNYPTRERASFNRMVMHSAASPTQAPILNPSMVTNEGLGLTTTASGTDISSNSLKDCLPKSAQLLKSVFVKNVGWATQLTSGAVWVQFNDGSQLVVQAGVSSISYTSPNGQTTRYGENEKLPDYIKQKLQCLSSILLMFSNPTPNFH
From the text: as §1, §2

LRRK2 = LRRK2 (Homo sapiens, UniProt Q5S007); assay: DiscoverX scanMAX competition binding assay; set-up: purchased Eurofins DiscoverX (scanMAX) / Eurofins enzymatic assays
Chain of LRRK2 (Q5S007 whole entry): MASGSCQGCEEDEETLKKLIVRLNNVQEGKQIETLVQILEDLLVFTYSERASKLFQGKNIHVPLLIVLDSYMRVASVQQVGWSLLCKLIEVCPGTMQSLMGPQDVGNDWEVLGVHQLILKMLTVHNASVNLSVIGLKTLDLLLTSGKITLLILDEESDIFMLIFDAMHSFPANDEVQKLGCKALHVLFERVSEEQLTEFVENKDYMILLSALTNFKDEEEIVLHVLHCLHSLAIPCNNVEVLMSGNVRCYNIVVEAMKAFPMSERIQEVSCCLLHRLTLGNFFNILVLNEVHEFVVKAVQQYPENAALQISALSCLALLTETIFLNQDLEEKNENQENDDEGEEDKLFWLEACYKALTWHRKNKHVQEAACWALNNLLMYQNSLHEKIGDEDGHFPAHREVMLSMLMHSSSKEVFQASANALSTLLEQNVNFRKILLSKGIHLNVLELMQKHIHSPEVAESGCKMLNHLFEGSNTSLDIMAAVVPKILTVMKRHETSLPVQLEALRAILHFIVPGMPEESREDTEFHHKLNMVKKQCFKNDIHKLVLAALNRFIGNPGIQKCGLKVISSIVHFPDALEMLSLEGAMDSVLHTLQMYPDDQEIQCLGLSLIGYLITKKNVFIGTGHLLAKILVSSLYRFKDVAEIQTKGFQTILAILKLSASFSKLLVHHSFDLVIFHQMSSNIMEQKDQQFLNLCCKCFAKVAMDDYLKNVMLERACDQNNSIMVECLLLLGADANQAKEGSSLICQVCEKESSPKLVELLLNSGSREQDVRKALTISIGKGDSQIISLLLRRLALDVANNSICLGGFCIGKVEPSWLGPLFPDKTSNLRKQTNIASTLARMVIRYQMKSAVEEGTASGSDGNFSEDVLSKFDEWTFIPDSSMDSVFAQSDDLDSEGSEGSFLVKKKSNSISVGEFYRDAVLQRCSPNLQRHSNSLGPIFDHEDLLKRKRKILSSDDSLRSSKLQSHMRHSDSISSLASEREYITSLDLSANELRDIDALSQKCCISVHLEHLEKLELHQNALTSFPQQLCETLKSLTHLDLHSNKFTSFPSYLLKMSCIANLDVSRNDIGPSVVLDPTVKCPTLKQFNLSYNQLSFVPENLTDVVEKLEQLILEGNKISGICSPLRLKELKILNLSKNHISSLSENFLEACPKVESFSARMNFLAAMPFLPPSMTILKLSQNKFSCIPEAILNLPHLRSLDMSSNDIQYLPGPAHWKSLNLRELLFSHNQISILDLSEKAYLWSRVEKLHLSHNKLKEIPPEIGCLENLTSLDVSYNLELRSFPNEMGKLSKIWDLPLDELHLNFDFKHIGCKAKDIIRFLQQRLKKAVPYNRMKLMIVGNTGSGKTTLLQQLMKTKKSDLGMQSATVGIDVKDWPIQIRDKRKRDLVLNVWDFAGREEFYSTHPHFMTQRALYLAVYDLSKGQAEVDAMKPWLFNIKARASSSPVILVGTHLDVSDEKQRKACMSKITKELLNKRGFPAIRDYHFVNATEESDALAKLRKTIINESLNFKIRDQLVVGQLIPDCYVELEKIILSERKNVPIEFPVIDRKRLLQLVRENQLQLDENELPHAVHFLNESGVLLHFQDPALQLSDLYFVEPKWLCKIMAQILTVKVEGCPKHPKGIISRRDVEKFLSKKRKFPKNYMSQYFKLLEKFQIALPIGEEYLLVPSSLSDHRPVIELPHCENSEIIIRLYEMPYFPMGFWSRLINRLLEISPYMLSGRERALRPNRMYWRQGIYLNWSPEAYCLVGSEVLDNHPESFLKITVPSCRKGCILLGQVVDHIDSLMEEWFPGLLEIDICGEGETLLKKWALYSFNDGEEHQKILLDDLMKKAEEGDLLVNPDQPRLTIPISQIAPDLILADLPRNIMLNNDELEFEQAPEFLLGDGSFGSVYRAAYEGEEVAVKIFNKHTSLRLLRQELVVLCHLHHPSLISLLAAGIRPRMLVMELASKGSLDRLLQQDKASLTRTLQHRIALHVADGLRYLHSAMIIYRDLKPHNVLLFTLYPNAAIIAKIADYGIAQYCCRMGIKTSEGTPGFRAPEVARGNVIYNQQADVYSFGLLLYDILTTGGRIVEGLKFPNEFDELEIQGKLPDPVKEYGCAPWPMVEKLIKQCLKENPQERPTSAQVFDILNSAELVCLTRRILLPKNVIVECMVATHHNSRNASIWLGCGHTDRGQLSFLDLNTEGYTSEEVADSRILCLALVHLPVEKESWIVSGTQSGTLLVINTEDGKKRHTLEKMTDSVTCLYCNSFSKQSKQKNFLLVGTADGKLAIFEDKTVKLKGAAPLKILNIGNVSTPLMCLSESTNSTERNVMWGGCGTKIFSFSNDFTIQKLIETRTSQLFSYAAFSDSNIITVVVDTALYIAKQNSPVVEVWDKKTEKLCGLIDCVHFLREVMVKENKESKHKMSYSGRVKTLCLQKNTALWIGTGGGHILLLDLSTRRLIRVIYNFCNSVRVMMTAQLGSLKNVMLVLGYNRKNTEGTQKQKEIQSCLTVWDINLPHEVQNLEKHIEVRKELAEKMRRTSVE
From the text: as §1, §2

PDGFRB = PDGFRB (Homo sapiens, UniProt P09619); assay: DiscoverX scanMAX competition binding assay; set-up: purchased Eurofins DiscoverX (scanMAX) / Eurofins enzymatic assays
From the text: as §1, §2

STK17A/DRAK1 = STK17A/DRAK1 (Homo sapiens, UniProt Q9UEE5); assay: DiscoverX scanMAX competition binding assay; set-up: purchased Eurofins DiscoverX (scanMAX) / Eurofins enzymatic assays
From the text: as §1, §2

FLT3 = FLT3 (Homo sapiens, UniProt P36888); assay: DiscoverX scanMAX competition binding assay; set-up: purchased Eurofins DiscoverX (scanMAX) / Eurofins enzymatic assays
Chain of FLT3 (P36888 27-993): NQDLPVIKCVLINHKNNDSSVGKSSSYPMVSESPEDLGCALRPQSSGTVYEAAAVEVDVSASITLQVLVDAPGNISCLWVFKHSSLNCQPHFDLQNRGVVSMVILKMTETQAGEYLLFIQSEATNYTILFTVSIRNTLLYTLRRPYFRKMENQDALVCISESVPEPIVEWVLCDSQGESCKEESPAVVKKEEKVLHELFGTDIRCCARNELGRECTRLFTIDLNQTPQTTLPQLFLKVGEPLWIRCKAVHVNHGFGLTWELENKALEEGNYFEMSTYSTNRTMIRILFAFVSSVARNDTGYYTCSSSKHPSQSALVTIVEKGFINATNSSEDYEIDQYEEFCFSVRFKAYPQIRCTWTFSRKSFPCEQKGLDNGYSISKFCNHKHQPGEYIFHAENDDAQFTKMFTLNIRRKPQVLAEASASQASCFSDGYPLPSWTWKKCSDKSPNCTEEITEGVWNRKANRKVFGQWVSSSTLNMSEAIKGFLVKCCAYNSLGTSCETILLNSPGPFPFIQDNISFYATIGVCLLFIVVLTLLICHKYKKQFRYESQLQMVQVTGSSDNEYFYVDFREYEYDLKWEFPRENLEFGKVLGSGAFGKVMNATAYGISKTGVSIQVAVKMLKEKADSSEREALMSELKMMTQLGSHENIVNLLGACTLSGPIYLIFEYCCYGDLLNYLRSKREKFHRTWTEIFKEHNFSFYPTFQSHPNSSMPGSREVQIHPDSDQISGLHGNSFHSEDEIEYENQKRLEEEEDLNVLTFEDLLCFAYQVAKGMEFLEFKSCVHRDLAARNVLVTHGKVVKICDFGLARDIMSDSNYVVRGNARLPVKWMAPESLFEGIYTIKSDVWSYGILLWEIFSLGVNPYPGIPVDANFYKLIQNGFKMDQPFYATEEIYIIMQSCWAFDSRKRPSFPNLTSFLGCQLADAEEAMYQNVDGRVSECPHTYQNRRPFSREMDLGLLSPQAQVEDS
From the text: as §1, §2

DAPK2 = DAPK2 (Homo sapiens, UniProt Q9UIK4); assay: DiscoverX scanMAX competition binding assay; set-up: purchased Eurofins DiscoverX (scanMAX) / Eurofins enzymatic assays
From the text: as §1, §2

PDGFRA = PDGFRA (Homo sapiens, UniProt P16234); assay: DiscoverX scanMAX competition binding assay; set-up: purchased Eurofins DiscoverX (scanMAX) / Eurofins enzymatic assays
From the text: as §1, §2

CHEK2 = CHEK2 (Homo sapiens, UniProt O96017); assay: DiscoverX scanMAX competition binding assay; set-up: purchased Eurofins DiscoverX (scanMAX) / Eurofins enzymatic assays
Chain of CHEK2 (O96017 whole entry): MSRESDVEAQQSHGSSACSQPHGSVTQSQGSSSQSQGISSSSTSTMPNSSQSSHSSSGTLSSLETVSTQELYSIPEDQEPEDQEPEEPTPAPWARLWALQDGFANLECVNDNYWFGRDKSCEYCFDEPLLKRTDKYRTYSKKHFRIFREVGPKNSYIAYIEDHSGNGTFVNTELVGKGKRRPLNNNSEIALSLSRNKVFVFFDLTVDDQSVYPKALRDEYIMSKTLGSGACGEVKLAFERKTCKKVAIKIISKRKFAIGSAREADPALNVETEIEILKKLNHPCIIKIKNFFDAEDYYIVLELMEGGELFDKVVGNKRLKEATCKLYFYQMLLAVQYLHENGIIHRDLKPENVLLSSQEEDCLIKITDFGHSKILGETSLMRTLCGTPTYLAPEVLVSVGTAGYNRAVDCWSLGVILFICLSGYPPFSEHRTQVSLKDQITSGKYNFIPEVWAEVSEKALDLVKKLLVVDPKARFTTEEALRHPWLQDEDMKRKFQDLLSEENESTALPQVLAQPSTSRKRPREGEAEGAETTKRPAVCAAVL
From the text: as §1, §2

PRKAA2 = target: T1, PRKAA2 (Homo sapiens, UniProt P54646); assay: DiscoverX scanMAX competition binding assay; conditions: read-out: % inhibition in the DiscoverX scanMAX panel at 1 μM
T1 construct: purchased Eurofins DiscoverX Corporation
From the text: as §1
To ascertain selectivity of GW296115 and validate our DiscoverX screening results using an orthogonal assay format, we chose to utilize Eurofins enzymatic kinase assays in dose–response at the Km of ATP.
as §2

MAP2K5/MEK5 = target: T2, MAP2K5/MEK5 (Homo sapiens, UniProt Q13163); assay: Eurofins kinase enzymatic LANCE assay; format: biochemical
T2 construct: purchased Eurofins
From the text: Due to our interest in the activity of GW296115 on several understudied IDG kinases, we collected full dose–response curves for all wild type kinases inhibited ≥ 75% in the DiscoverX panel that were offered by Eurofins. Having data in orthogonal formats is a powerful way to confirm inhibitory activity and adds rigor to our results. Eurofins has kinase enzymatic radiometric assays for 35 of the kinases on this list (Table S2) and a kinase enzymatic LANCE assay for one additional kinase (MAP2K5/MEK5).
Eurofins kinase enzymatic radiometric assays were carried out at the Km of ATP in dose–response (9-pt curve in duplicate) for each kinase for which it was offered.

COc1ccc2[nH]c3c4[nH]c5ccc(OC)cc5c4c4c(c3c2c1)C(=O)NC4=O [GW296115]
inhibition at 1 µM (TNIK): 97.7% | inhibition at 1 µM (PLK4): 99.5% | inhibition at 1 µM (LRRK2): 100% | inhibition at 1 µM (PDGFRB): 99.8% | inhibition at 1 µM (STK17A/DRAK1): 99.6% | inhibition at 1 µM (FLT3): 91.5% | inhibition at 1 µM (DAPK2): 96.7% | inhibition at 1 µM (PDGFRA): 91.4% | inhibition at 1 µM (CHEK2): 92.5% | inhibition at 1 µM (PRKAA2): 20% | IC50 (MAP2K5/MEK5): > 10 µM
